{"source": "paper PMC12115180", "about": "(Pharmaceuticals, 2025)", "key": {"[1]": {"test": "Retinal delivery of rifampicin in rat after topical 0.25% eye drops", "type": "in vivo, Sprague-Dawley rats", "protocol": "A single drop contained 5 μL of the above-described formulation, and the application of each drug drop was carried out at intervals of 30 min. After the eye drop application, euthanasia was performed using CO2 gas, and the retina was excised from each rat under a dissection microscope. In addition, “non-treated” negative controls were used, and the retina was excised from two rats without performing any treatments on the rats. The retina was placed in a 1.5 mL microcentrifuge tube (1 retina/tube) and was fully washed with DPBS. After completion of the washing procedures, the retinal tissues in the microcentrifuge tube were frozen in dry ice and then preserved for quantification by LC/MS analysis."}, "[2]": {"test": "Rat retina pharmacokinetics, single topical 0.25% rifampicin eye drop", "type": "in vivo, Sprague–Dawley rats", "conditions": "male, Sprague-Dawley, topical or ocular, 15 μL of 0.25% rifampicin eye drop", "protocol": "At time points of 1 h, 3 h, and 7 h after the application of the eye drops, euthanasia was performed using CO2 gas, and the retinal tissues were excised from the rats under a dissection microscope. In addition, “non-treated” negative controls were used, and the retina was excised from one rat without performing any treatments on the rat. The retina was placed in a 1.5-mL microcentrifuge tube (1 retina/tube) and was fully washed with DPBS. After completion of the washing procedures, the retinal tissues in the microcentrifuge tube were frozen in dry ice and then preserved for quantification by LC/MS analysis."}, "[3]": {"test_system": "oxygen-induced retinopathy rat models", "test": "Oxygen-induced retinopathy rat model, capillary count in histology sections", "type": "in vivo, Sprague–Dawley rat", "conditions": "SC injection 20 mg/kg once a day P15–P19, histology P20", "text": "Oxygen-induced retinopathy rat models were produced according to the protocols of Yanni et al. (2010). Sprague–Dawley rat babies (and their nursing mothers) were exposed to a cycling oxygen environment (80% and 21%, about one day for each) for 15 days after starting from the day of birth (Day 0). On Day 15 (P15), the animals were moved to room air. […] On P20, all of the animals were euthanized by CO2 gas, and the retina was visualized as histology sections."}, "[4]": {"test": "Mouse sub-retina/sclera complex pharmacokinetics after SC injection", "type": "in vivo, C57BL/6J mice", "conditions": "single SC injection 0.7 mg/kg", "protocol": "This effective dosage and administration route was evaluated in dose escalation studies by using the mouse laser-induced CNV model. The AUC reflects the exposure to the drug after administration of a dose of the drug and is expressed in hour · ng/mg tissue. The AUC is dependent on the dose administered as well as the rate of elimination of the drug from the tissue. The AUC is directly proportional to the dose when the drug follows linear kinetics, and AUC is inversely proportional to the clearance of the drug. In 1 h, 3 h, 6 h, and 18 h after the SC injection, eyeballs were extracted. Tissue from the retina, the sclera, and the sub-retina complex were isolated and extracted. These tissues were immediately frozen in liquid nitrogen. The tissue was subjected to LC/MS analysis for quantitation. The detection limit was 0.25 ng/g tissue."}, "[5]": {"test": "Non-GLP tox studies in rabbits, topical application", "type": "in vivo", "conditions": "twice daily topical application of 1% rifampicin, 3-month dosing (Unpublished data)"}, "[6]": {"test": "Human peak plasma exposure (package insert)", "type": "in vivo", "conditions": "600 mg intravenous dose, calculated from package insert values"}, "[7]": {"parameters": "method as in WO 2023/234423 A1", "conditions": "mouse, SC; ref WO 2023/234423 A1; cited from earlier work"}, "HUVEC": {"test_system": "HUVEC", "conditions": "in vitro; cited from earlier work"}, "[8]": {"parameters": "method as in earlier work", "conditions": "cited from earlier work"}, "[9]": {"parameters": "method as in PMID 17995946", "conditions": "typical six-month course for tuberculosis; cited from earlier work"}, "[10]": {"test_system": "patients with Central Serous Chorioretinopathy (CSC)", "conditions": "cited from earlier work"}, "[11]": {"test_system": "mouse laser-induced CNV model", "test": "Mouse laser-induced CNV model"}, "[12]": {"conditions": "Rabbit, average of n = 6; 0.5% 50 μL, 250 μg; cited from earlier work"}}, "note": "Where two headings read alike, the source gives them in different places."}
{"compound": "CO[C@H]1/C=C/O[C@@]2(C)Oc3c(C)c(O)c4c(O)c(c(/C=N/N5CCN(C)CC5)c(O)c4c3C2=O)NC(=O)/C(C)=C\\C=C\\[C@H](C)[C@H](O)[C@@H](C)[C@@H](O)[C@@H](C)[C@H](OC(C)=O)[C@@H]1C", "note": "[Rifampicin]", "values": [{"measurement": "Drug Amount Detected in Retina", "setting": "[1]; topical 0.25% 3 drops (15 μL, 37.5 μg)", "result": "1280 ng/ 1 g of retinal tissues (Rat) SE: 394.0348"}, {"measurement": "Drug Amount Detected in Retina", "setting": "[1]; topical 0.25% 10 drops (50 μL, 125 μg)", "result": "2939 ng/ 1 g of retinal tissues (Rat) SE: 50.54"}, {"measurement": "Tmax", "setting": "[2]", "result": "~1", "unit": "h"}, {"measurement": "Number of new capillaries on the retinal surface vs vehicle control", "setting": "[3]", "result": "fewer than that in the control group"}, {"measurement": "Peak concentration in mouse sub-retinal and scleral complex", "setting": "[4]", "result": "approximately 0.03 ng/mg tissue weight"}, {"measurement": "Peak concentration in mouse sub-retinal and scleral complex, calculated molar", "setting": "[4]", "result": "roughly 0.04 µM"}, {"measurement": "Toxicity on repeated topical application", "setting": "[5]", "result": "no toxicity"}, {"measurement": "Estimated serum concentration corresponding to peak plasma exposure", "setting": "[6]", "result": "12 to 23", "unit": "µM"}, {"measurement": "Share of rifampicin in sub-retina and sclera complex delivered to the sub-retina", "setting": "[7]", "result": "approximately 70%"}, {"measurement": "Concentration required for statistically significant inhibition of HUVEC tube formation and proliferation", "setting": "HUVEC", "result": "approximately 30 µM"}, {"measurement": "Peak plasma exposure", "setting": "[8]; 600 mg intravenous dose", "result": "9 to 17", "unit": "µg/mL"}, {"measurement": "Peak plasma exposure", "setting": "[8]; 600 mg oral dose", "result": "4 to 32", "unit": "µg/mL"}, {"measurement": "Patients with hepatotoxicity", "setting": "[9]", "result": "up to 28%"}, {"measurement": "Effect on CSC", "setting": "[10]; 600 mg daily oral dose", "result": "improvements in CSC"}, {"measurement": "Effect on visual acuity and macular thickness in CSC", "setting": "[10]; daily oral dosage of 300 mg", "result": "improved visual acuity and macular thickness"}, {"measurement": "Inhibition of neovascularization in CNV model", "setting": "[11]; SC injection 0.7 mg/kg once daily, 7 days after laser", "result": "significantly inhibited neovascularization"}, {"measurement": "Neovascularization inhibition level compared with intravitreal aflibercept", "setting": "[11]; SC injections at doses exceeding 0.7 mg/kg", "result": "equivalent to that achieved with intravitreal injection of aflibercept"}, {"measurement": "Minimum effective dose for inhibiting neovascularization in subretinal tissues", "setting": "[11]; SC, dose escalation studies", "result": 0.7, "unit": "mg/kg"}, {"measurement": "Effective dosage in CNV model, times less than that of bacterial inhibition", "setting": "[11]; vs 20 mg/kg effective systemic dosage for bacterial infection", "result": "approximately 30 times"}]}
{"compound": "C[C@@H]1C[C@H]2[C@@H]3CCC4=CC(=O)C=C[C@]4(C)[C@@]3(F)[C@@H](O)C[C@]2(C)[C@@]1(O)C(=O)CO", "note": "[Dexamethasone]", "values": [{"measurement": "Drug Amount Detected in Retina", "setting": "[12]", "result": "33 ng/ 1 g of retinal tissues (Rabbit, average of n = 6)"}]}
